Source: PubChem BioAssay (NCI)
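A five-concentration, 48-hour dose response in 96-well plates underlies each endpoint, interpolated linearly between surrounding concentrations. GI50: concentration for 50% inhibition of growth. TGI denotes the concentration required for complete inhibition of growth.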

What was measured:
Assay in all cases: growth of human tumour cells (NCI), 48 h
LOX IMVI melanoma = tested on: LOX IMVI melanoma
SK-MEL-28 melanoma = tested on: SK-MEL-28 melanoma
SF-539 CNS = tested on: SF-539 CNS
MOLT-4 leukemia = tested on: MOLT-4 leukemia
NCI/ADR-RES ovarian = tested on: NCI/ADR-RES ovarian
HOP-92 NSCLC = tested on: HOP-92 NSCLC
HCC-2998 colon = tested on: HCC-2998 colon
MCF7 breast = tested on: MCF7 breast
NCI-H23 lung = tested on: NCI-H23 lung
SR leukemia = tested on: SR leukemia
UACC-257 melanoma = tested on: UACC-257 melanoma
OVCAR-8 ovarian = tested on: OVCAR-8 ovarian
SNB-75 CNS = tested on: SNB-75 CNS
EKVX NSCLC = tested on: EKVX NSCLC
MDA-MB-435 = tested on: MDA-MB-435
SF-295 CNS = tested on: SF-295 CNS
HCT-15 colon = tested on: HCT-15 colon
NCI-H226 lung = tested on: NCI-H226 lung
SN12C renal = tested on: SN12C renal
HL-60(TB) leukemia = tested on: HL-60(TB) leukemia
OVCAR-3 ovarian = tested on: OVCAR-3 ovarian
SK-OV-3 ovarian = tested on: SK-OV-3 ovarian
OVCAR-4 ovarian = tested on: OVCAR-4 ovarian
786-0 renal = tested on: 786-0 renal
M14 melanoma = tested on: M14 melanoma
UACC-62 melanoma = tested on: UACC-62 melanoma
IGROV1 ovarian = tested on: IGROV1 ovarian
SK-MEL-5 melanoma = tested on: SK-MEL-5 melanoma
RXF 393 renal = tested on: RXF 393 renal
RPMI-8226 leukemia = tested on: RPMI-8226 leukemia
SNB-19 CNS = tested on: SNB-19 CNS
COLO 205 colon = tested on: COLO 205 colon
T-47D breast = tested on: T-47D breast
OVCAR-5 ovarian = tested on: OVCAR-5 ovarian
NCI-H522 lung = tested on: NCI-H522 lung
PC-3 prostate = tested on: PC-3 prostate
HOP-62 NSCLC = tested on: HOP-62 NSCLC
MDA-MB-468 breast = tested on: MDA-MB-468 breast
HS 578T breast = tested on: HS 578T breast
TK-10 renal = tested on: TK-10 renal
CAKI-1 renal = tested on: CAKI-1 renal
BT-549 breast = tested on: BT-549 breast
DU-145 prostate = tested on: DU-145 prostate
A549 NSCLC = tested on: A549 NSCLC
UO-31 renal = tested on: UO-31 renal
KM12 colon = tested on: KM12 colon
CCRF-CEM leukemia = tested on: CCRF-CEM leukemia
SF-268 CNS = tested on: SF-268 CNS
SW-620 colon = tested on: SW-620 colon
NCI-H460 lung = tested on: NCI-H460 lung
A498 renal = tested on: A498 renal
SK-MEL-2 melanoma = tested on: SK-MEL-2 melanoma
MALME-3M melanoma = tested on: MALME-3M melanoma
U251 CNS = tested on: U251 CNS
HCT-116 colon = tested on: HCT-116 colon
MDA-MB-231 breast = tested on: MDA-MB-231 breast
ACHN renal = tested on: ACHN renal
HT29 colon = tested on: HT29 colon
K-562 leukemia = tested on: K-562 leukemia

Q: For `C[C@H]1[C@H](C)CC[C@]2(COC(=O)CCC(=O)NCC#CCN3CCNCC3)CC[C@]3(C)C(=CC[C@@H]4[C@@]5(C)CCCNC(C)(C)[C@@H]5CC[C@]43C)[C@H]12`, which GI50 (LOX IMVI melanoma) is on record?
A: 20.5 µM

Q: What about the TGI (LOX IMVI melanoma) of the same compound?
A: 44.7 µM

Q: What about the GI50 (SK-MEL-28 melanoma) of the same compound?
A: 16.4 µM

Q: And the TGI (SK-MEL-28 melanoma)?
A: 30 µM

Q: What about the GI50 (SF-539 CNS) of the same compound?
A: 13.9 µM

Q: What about the TGI (SF-539 CNS) of the same compound?
A: 26.8 µM

Q: What about the GI50 (MOLT-4 leukemia) of the same compound?
A: 9.96 µM

Q: What about the TGI (MOLT-4 leukemia) of the same compound?
A: 32.9 µM

Q: And the GI50 (NCI/ADR-RES ovarian)?
A: 17.4 µM

Q: What about the TGI (NCI/ADR-RES ovarian) of the same compound?
A: 34.6 µM

Q: What about the GI50 (HOP-92 NSCLC) of the same compound?
A: 13.2 µM

Q: And the TGI (HOP-92 NSCLC)?
A: 41.7 µM

Q: And the GI50 (HCC-2998 colon)?
A: 15.1 µM

Q: And the TGI (HCC-2998 colon)?
A: 29.2 µM

Q: And the GI50 (MCF7 breast)?
A: 12.7 µM

Q: And the TGI (MCF7 breast)?
A: 25.3 µM

Q: What about the GI50 (NCI-H23 lung) of the same compound?
A: 16.2 µM

Q: And the TGI (NCI-H23 lung)?
A: 30.7 µM

Q: And the GI50 (SR leukemia)?
A: 15.4 µM

Q: And the TGI (SR leukemia)?
A: 61.5 µM

Q: And the GI50 (UACC-257 melanoma)?
A: 16.5 µM

Q: And the TGI (UACC-257 melanoma)?
A: 33.5 µM

Q: And the GI50 (OVCAR-8 ovarian)?
A: 19 µM

Q: And the TGI (OVCAR-8 ovarian)?
A: 37.9 µM

Q: And the GI50 (SNB-75 CNS)?
A: 13.3 µM

Q: What about the TGI (SNB-75 CNS) of the same compound?
A: 37.8 µM

Q: What about the GI50 (EKVX NSCLC) of the same compound?
A: 15.9 µM

Q: What about the TGI (EKVX NSCLC) of the same compound?
A: 32.2 µM

Q: And the GI50 (MDA-MB-435)?
A: 14.1 µM

Q: What about the TGI (MDA-MB-435) of the same compound?
A: 27.5 µM

Q: What about the GI50 (SF-295 CNS) of the same compound?
A: 22.5 µM

Q: And the TGI (SF-295 CNS)?
A: 57.2 µM

Q: What about the GI50 (HCT-15 colon) of the same compound?
A: 14.5 µM

Q: And the TGI (HCT-15 colon)?
A: 27.6 µM

Q: And the GI50 (NCI-H226 lung)?
A: 27.3 µM

Q: What about the TGI (NCI-H226 lung) of the same compound?
A: > 100 µM

Q: What about the GI50 (SN12C renal) of the same compound?
A: 14.7 µM

Q: What about the TGI (SN12C renal) of the same compound?
A: 28.8 µM

Q: And the GI50 (HL-60(TB) leukemia)?
A: 4.98 µM

Q: What about the TGI (HL-60(TB) leukemia) of the same compound?
A: 27.1 µM

Q: What about the GI50 (OVCAR-3 ovarian) of the same compound?
A: 14.1 µM

Q: What about the TGI (OVCAR-3 ovarian) of the same compound?
A: 27.6 µM

Q: And the GI50 (SK-OV-3 ovarian)?
A: 19.4 µM

Q: What about the TGI (SK-OV-3 ovarian) of the same compound?
A: 44.7 µM

Q: What about the GI50 (OVCAR-4 ovarian) of the same compound?
A: 25.1 µM

Q: What about the TGI (OVCAR-4 ovarian) of the same compound?
A: 72.9 µM

Q: What about the GI50 (786-0 renal) of the same compound?
A: 15 µM

Q: And the TGI (786-0 renal)?
A: 34.6 µM

Q: And the GI50 (M14 melanoma)?
A: 15.7 µM

Q: And the TGI (M14 melanoma)?
A: 30.9 µM

Q: What about the GI50 (UACC-62 melanoma) of the same compound?
A: 14 µM

Q: And the TGI (UACC-62 melanoma)?
A: 27.2 µM

Q: And the GI50 (IGROV1 ovarian)?
A: 14.3 µM

Q: And the TGI (IGROV1 ovarian)?
A: 27.3 µM

Q: What about the GI50 (SK-MEL-5 melanoma) of the same compound?
A: 14.2 µM

Q: And the TGI (SK-MEL-5 melanoma)?
A: 31.9 µM

Q: And the GI50 (RXF 393 renal)?
A: 18.2 µM

Q: What about the TGI (RXF 393 renal) of the same compound?
A: 45.6 µM

Q: And the GI50 (RPMI-8226 leukemia)?
A: 17 µM

Q: And the TGI (RPMI-8226 leukemia)?
A: 94.5 µM

Q: And the GI50 (SNB-19 CNS)?
A: 15.7 µM

Q: What about the TGI (SNB-19 CNS) of the same compound?
A: 29.1 µM

Q: And the GI50 (COLO 205 colon)?
A: 18.3 µM

Q: What about the TGI (COLO 205 colon) of the same compound?
A: 36 µM

Q: And the GI50 (T-47D breast)?
A: 19 µM

Q: And the TGI (T-47D breast)?
A: 44.4 µM

Q: And the GI50 (OVCAR-5 ovarian)?
A: 17.2 µM

Q: And the TGI (OVCAR-5 ovarian)?
A: 30.9 µM

Q: What about the GI50 (NCI-H522 lung) of the same compound?
A: 16.4 µM

Q: And the TGI (NCI-H522 lung)?
A: 33.7 µM

Q: And the GI50 (PC-3 prostate)?
A: 11 µM

Q: What about the TGI (PC-3 prostate) of the same compound?
A: 27.3 µM

Q: What about the GI50 (HOP-62 NSCLC) of the same compound?
A: 18.9 µM

Q: And the TGI (HOP-62 NSCLC)?
A: 36.8 µM

Q: What about the GI50 (MDA-MB-468 breast) of the same compound?
A: 10.7 µM

Q: And the TGI (MDA-MB-468 breast)?
A: 25.9 µM

Q: What about the GI50 (HS 578T breast) of the same compound?
A: 20.9 µM

Q: What about the TGI (HS 578T breast) of the same compound?
A: 55.7 µM

Q: What about the GI50 (TK-10 renal) of the same compound?
A: 18.9 µM

Q: And the TGI (TK-10 renal)?
A: 37.4 µM

Q: What about the GI50 (CAKI-1 renal) of the same compound?
A: 14.7 µM

Q: And the TGI (CAKI-1 renal)?
A: 28.4 µM

Q: And the GI50 (BT-549 breast)?
A: 16.2 µM

Q: What about the TGI (BT-549 breast) of the same compound?
A: 32.7 µM

Q: And the GI50 (DU-145 prostate)?
A: 17.5 µM

Q: What about the TGI (DU-145 prostate) of the same compound?
A: 31.2 µM

Q: And the GI50 (A549 NSCLC)?
A: 14.9 µM

Q: What about the TGI (A549 NSCLC) of the same compound?
A: 28.1 µM

Q: What about the GI50 (UO-31 renal) of the same compound?
A: 12 µM

Q: And the TGI (UO-31 renal)?
A: 24.3 µM

Q: And the GI50 (KM12 colon)?
A: 17.5 µM

Q: What about the TGI (KM12 colon) of the same compound?
A: 34 µM

Q: And the GI50 (CCRF-CEM leukemia)?
A: 16.8 µM

Q: What about the TGI (CCRF-CEM leukemia) of the same compound?
A: 48.2 µM

Q: What about the GI50 (SF-268 CNS) of the same compound?
A: 17.9 µM

Q: What about the TGI (SF-268 CNS) of the same compound?
A: 40.1 µM

Q: And the GI50 (SW-620 colon)?
A: 15.5 µM

Q: What about the TGI (SW-620 colon) of the same compound?
A: 28.9 µM

Q: What about the GI50 (NCI-H460 lung) of the same compound?
A: 16.5 µM

Q: And the TGI (NCI-H460 lung)?
A: 30.1 µM

Q: And the GI50 (A498 renal)?
A: 15.1 µM

Q: And the TGI (A498 renal)?
A: 28.3 µM

Q: And the GI50 (SK-MEL-2 melanoma)?
A: 17.7 µM

Q: What about the TGI (SK-MEL-2 melanoma) of the same compound?
A: 33.4 µM

Q: And the GI50 (MALME-3M melanoma)?
A: 15.8 µM

Q: What about the TGI (MALME-3M melanoma) of the same compound?
A: 29.2 µM

Q: And the GI50 (U251 CNS)?
A: 16.9 µM

Q: What about the TGI (U251 CNS) of the same compound?
A: 32 µM

Q: What about the GI50 (HCT-116 colon) of the same compound?
A: 11.5 µM

Q: What about the TGI (HCT-116 colon) of the same compound?
A: 23.6 µM

Q: And the GI50 (MDA-MB-231 breast)?
A: 18.2 µM

Q: And the TGI (MDA-MB-231 breast)?
A: 32.1 µM

Q: What about the GI50 (ACHN renal) of the same compound?
A: 16.4 µM

Q: What about the TGI (ACHN renal) of the same compound?
A: 30 µM

Q: What about the GI50 (HT29 colon) of the same compound?
A: 12.3 µM

Q: What about the TGI (HT29 colon) of the same compound?
A: 26.1 µM

Q: And the GI50 (K-562 leukemia)?
A: 6.02 µM

Q: What about the TGI (K-562 leukemia) of the same compound?
A: 20.5 µM
